According to patent US20250090571A1, “CARD9 ATTENUATES AB PATHOLOGY AND MODIFIES MICROGLIAL RESPONSES IN AN ALZHEIMER’S DISEASE” (University of Virginia Patent Foundation, priority 2023, published 2025):

Experiments:
Type in all cases: in vivo, mouse
[1] = system: 5×FAD mice; experiment: Microglia depletion with PLX5622 chow, microgliosis and Aβ load in the cortex; details: PLX5622 chow for 2.5 months, vs normal chow
Method: (§1) As previously published (110), brain sections were blocked for 1 hour at room temperature with 2% donkey serum, 1% bovine serum albumin, 0.1% triton, 0.05% tween in PBS prior to incubation with primary antibodies. The primary antibodies were then diluted in this block overnight at 4° C. Brain sections were stained with anti-Aβ (D54D2, Cell Signaling, 1:300 dilution) to label plaques. To assess neuronal cell death, sections were stained with anti-NeuN (MAβ377, Millipore Sigma, 1:500 dilution) and TUNEL (Millipore Sigma, 11684795910, according to the manufacturer's instructions). In order to analyze microglia, sections were stained with IBA1 (ab5076, Abcam, 1:300 dilution). Microglial proliferation was assessed using Ki67-EF660 (SolA15, Thermo Fisher, 1:100 dilution). Microglial iron accumulation was measured using Ferritin Heavy Chain (PA5-27500, Thermo Fisher, 1:500). Following primary antibody incubation, sections were then washed 3 times for 10 minutes at room temperature in PBS and 0.05% tween-20. After washing, the brain sections were incubated in respective donkey Alexa Fluor 488, 594, 647 anti-rabbit, -goat, -rat, -streptavidin, and-mouse (Thermo Fisher, 1:1000 dilution) for 2 hours at room temperature. Once again, brain sections were washed 3 times for 10 minutes at room temperature. […] Images were analyzed using FIJI software or Imaris software (9.5.1). […]

[2] = system: Card9−/−5×FAD mice; experiment: Microglia depletion with PLX5622 chow, microgliosis and Aβ load in the cortex (CARD9-deficient); details: PLX5622 chow for 2.5 months, vs control chow
Method: as §1

[3] = system: Card9−/−5×FAD mice; experiment: Intrahippocampal injection of pustulan, Aβ load in the hippocampus by immunofluorescence (CARD9-deficient control); details: 2-month-old Card9−/−5×FAD mice, 2 μg pustulan intrahippocampal, 7 days post-injection, vs vehicle-treated hemisphere
Method: as §1

[4] = system: 5×FAD mice; experiment: Intrahippocampal injection of pustulan, Aβ load in the hippocampus by immunofluorescence; details: 2-month-old 5×FAD mice, 2 μg pustulan intrahippocampal, 7 days post-injection, vs vehicle-treated hemisphere
Method: As previously published (110), brain sections were blocked for 1 hour at room temperature with 2% donkey serum, 1% bovine serum albumin, 0.1% triton, 0.05% tween in PBS prior to incubation with primary antibodies. The primary antibodies were then diluted in this block overnight at 4° C. Brain sections were stained with anti-Aβ (D54D2, Cell Signaling, 1:300 dilution) to label plaques. To assess neuronal cell death, sections were stained with anti-NeuN (MAβ377, Millipore Sigma, 1:500 dilution) and TUNEL (Millipore Sigma, 11684795910, according to the manufacturer's instructions). In order to analyze microglia, sections were stained with IBA1 (ab5076, Abcam, 1:300 dilution). Microglial proliferation was assessed using Ki67-EF660 (SolA15, Thermo Fisher, 1:100 dilution). Microglial iron accumulation was measured using Ferritin Heavy Chain (PA5-27500, Thermo Fisher, 1:500). Following primary antibody incubation, sections were then washed 3 times for 10 minutes at room temperature in PBS and 0.05% tween-20. After washing, the brain sections were incubated in respective donkey Alexa Fluor 488, 594, 647 anti-rabbit, -goat, -rat, -streptavidin, and-mouse (Thermo Fisher, 1:1000 dilution) for 2 hours at room temperature. Once again, brain sections were washed 3 times for 10 minutes at room temperature. […] Images were analyzed using FIJI software or Imaris software (9.5.1).
5×FAD and Card9^−/−5×FAD mice were anesthetized with a ketamine/xylazine cocktail before receiving a bilateral hippocampal injection of 2 μl of vehicle or 2 μg pustulan into the right and left hemisphere of the hippocampus (at +2 mm lateral, -2 mm posterior, and −2 mm ventral relative to the intersection of the coronal and sagittal suture (bregma) at a rate of 200 nl/min) using a stereotaxic frame (51730U, Stoelting) and nanoliter injector (NL2010MC2T, World Precision Instruments). […] Images were analyzed using FIJI software or Imaris software (9.5.1). […]

Molecule: COc1ncc(F)cc1CNc1ccc(Cc2c[nH]c3ncc(C)cc23)c(F)n1 [PLX5622]
- Aβ plaque load in the cortex [1]: significantly increased
- Aβ plaque load in the cortex [2]: did not significantly impact

Molecule: Pustulan
- levels of Aβ in the hippocampus [3]: comparable levels of Aβ regardless of treatment
- Aβ coverage in the hippocampus [4]: significantly reduced
- Aβ plaque volume in the hippocampus [4]: lower plaque volume
- number of Aβ plaques in the hippocampus [4]: fewer plaques
